# Values quoted from earlier work in paper PMC10714399, “Open Source Antibiotics: Simple Diarylimidazoles Are Potent against Methicillin-Resistant Staphylococcus aureus” (ACS Infectious Diseases, 2023).
# Assays:
# [1] = design: method as in earlier work; conditions: 48 h XTT assay; read-out: CC50, cytotoxicity; cited from earlier work
# p38 kinase = tested on: p38 kinase; design: method as in earlier work; conditions: cited from earlier work
# [2] = tested on: TGF-β1-induced fibronectin mRNA formation; design: method as in earlier work; conditions: cited from earlier work
# [3] = target: transforming growth factor β1 (TGF-β1) type I receptor (ALK5); design: method as in earlier work; conditions: read-out: IC50 against ALK5; cited from earlier work
structure (smiles),measurement,setting,value
NC(=O)c1ccc(-c2nc(-c3ccc4c(c3)OCO4)c(-c3ccccn3)[nH]2)cc1 [SB-431542],CC50,[1],> 30000 nM
same,inhibition of p38 kinase,p38 kinase,no inhibition
same,IC50,[2],50 nM
same,IC50,[3],94 nM
